Reference: patent US20230233569A1 (Revolution Medicines, Inc., priority 2020, published 2023)

Key:
Test in all cases: Ras-Raf disruption / FRET / MOA assay (BRAF RBD)
Assay type in all cases: biochemical
[1] = target: KRAS G13C (Homo sapiens, UniProt P01116+P62937, G13C); conditions: Ras-Raf disruption, with Cyclophilin A; read-out: KRAS G13C FRET data IC50
From the text: (§1) Disruption of […] Ras-binding Domain (BRAF^RBD) Interaction with K-Ras by Compounds of the Invention (also Called a FRET Assay or an MOA Assay)
(§2) Note—The following protocol describes a procedure for monitoring disruption of K-Ras G12C (GMP-PNP) binding to BRAF^RBD by a compound of the invention. This protocol may also be executed substituting other Ras proteins or nucleotides, such as K-Ras G12D and K-Ras G13D.
(§3) The purpose of this biochemical assay was to measure the ability of test compounds to facilitate ternary complex formation between a nucleotide-loaded K-Ras isoform and Cyclophilin A; the resulting ternary complex disrupts binding to a BRAF^RBD construct, inhibiting K-Ras signaling through a RAF effector. Data is reported as IC50 values.
(§4) In assay buffer containing 25 mM HEPES pH 7.3, 0.002% Tween20, 0.1% BSA, 100 mM NaCl and 5 mM MgCl2, tagless Cyclophilin A, His6-K-Ras-GMPPNP, and GST-BRAF^RBD were combined in a 384-well assay plate at final concentrations of 25 μM, 12.5 nM, and 50 nM, respectively. Compound was present in plate wells as a 10-point 3-fold dilution series starting at a final concentration of 30 μM. After incubation at 25° C. for 3 hours, a mixture of anti-His Eu-W1024 and anti-GST allophycocyanin was then added to assay sample wells at final concentrations of 10 nM and 50 nM, respectively, and the reaction incubated for an additional 1.5 hours. […] Compounds that facilitate disruption of a K-Ras:RAF complex were identified as those eliciting a decrease in the TR-FRET ratio relative to DMSO control wells.

[2] = target: KRAS G12S (Homo sapiens, UniProt P01116+P62937, G12S); conditions: Ras-Raf disruption, with Cyclophilin A; read-out: KRAS G12S FRET data IC50
Chain of KRAS G12S (P01116 1-169 isoform P01116-2 G12S limits assumed): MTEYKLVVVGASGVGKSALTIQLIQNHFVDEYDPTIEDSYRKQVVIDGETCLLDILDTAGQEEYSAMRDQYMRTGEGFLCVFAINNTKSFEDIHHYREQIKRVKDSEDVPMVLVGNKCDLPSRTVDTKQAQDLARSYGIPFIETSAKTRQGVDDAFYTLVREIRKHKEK
Chain of KRAS G12S (P62937 whole entry): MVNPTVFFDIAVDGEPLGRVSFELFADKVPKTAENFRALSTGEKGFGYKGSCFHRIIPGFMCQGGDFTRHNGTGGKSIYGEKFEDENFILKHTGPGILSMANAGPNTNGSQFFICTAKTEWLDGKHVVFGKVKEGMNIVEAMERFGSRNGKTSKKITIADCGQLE
From the text: as §1, §2, §3, §4

[3] = target: KRAS G12V (Homo sapiens, UniProt P01116+P62937, G12V); conditions: Ras-Raf disruption, with Cyclophilin A; read-out: KRAS G12V FRET data IC50
Chain of KRAS G12V (P01116 1-169 isoform P01116-2 G12V limits assumed): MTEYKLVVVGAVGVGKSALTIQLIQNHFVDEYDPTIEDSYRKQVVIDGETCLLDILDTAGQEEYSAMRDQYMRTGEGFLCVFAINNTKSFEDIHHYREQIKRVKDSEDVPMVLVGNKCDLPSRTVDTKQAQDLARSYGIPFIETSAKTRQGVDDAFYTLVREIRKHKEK
Chain of KRAS G12V (P62937 whole entry): as the sequence (P62937 whole entry) above
From the text: as §1, §2, §3, §4

[4] = target: NRAS G12C (Homo sapiens, UniProt P01111+P62937, G12C); conditions: NRAS G12C; read-out: NRAS G12C FRET data IC50
Chain of NRAS G12C (P01111 whole entry G12C): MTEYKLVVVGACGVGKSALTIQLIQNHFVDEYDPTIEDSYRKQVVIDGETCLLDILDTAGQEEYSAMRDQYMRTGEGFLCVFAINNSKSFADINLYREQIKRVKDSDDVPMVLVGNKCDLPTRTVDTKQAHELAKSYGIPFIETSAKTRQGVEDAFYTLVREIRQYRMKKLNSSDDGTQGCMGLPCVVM
Chain of NRAS G12C (P62937 whole entry): as the sequence (P62937 whole entry) above
From the text: as §1, §2, §3, §4

[5] = target: KRAS WT (Homo sapiens, UniProt P01116+P62937); conditions: Ras-Raf disruption, with Cyclophilin A; read-out: KRAS WT FRET data IC50
Chain of KRAS WT (P01116 1-169 isoform P01116-2 limits assumed): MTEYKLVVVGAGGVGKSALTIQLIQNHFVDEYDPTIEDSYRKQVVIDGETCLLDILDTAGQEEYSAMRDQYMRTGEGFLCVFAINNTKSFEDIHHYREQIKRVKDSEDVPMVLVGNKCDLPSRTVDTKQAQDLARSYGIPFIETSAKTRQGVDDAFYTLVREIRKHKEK
Chain of KRAS WT (P62937 whole entry): as the sequence (P62937 whole entry) above
From the text: as §1, §2, §3, §4

[6] = target: KRAS G12D (Homo sapiens, UniProt P01116+P62937, G12D); conditions: Ras-Raf disruption, with Cyclophilin A; read-out: KRAS G12D FRET data IC50
Chain of KRAS G12D (P01116 1-169 isoform P01116-2 G12D limits assumed): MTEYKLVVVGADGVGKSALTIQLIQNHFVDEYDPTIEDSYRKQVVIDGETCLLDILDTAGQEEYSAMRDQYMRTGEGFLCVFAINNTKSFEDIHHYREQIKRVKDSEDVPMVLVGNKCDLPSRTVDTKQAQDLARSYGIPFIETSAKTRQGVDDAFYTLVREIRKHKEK
Chain of KRAS G12D (P62937 whole entry): as the sequence (P62937 whole entry) above
From the text: as §1, §2, §3, §4

[7] = target: KRAS G13D (Homo sapiens, UniProt P01116+P62937, G13D); conditions: Ras-Raf disruption, with Cyclophilin A; read-out: KRAS G13D FRET data IC50
Chain of KRAS G13D (P01116 1-169 isoform P01116-2 G13D limits assumed): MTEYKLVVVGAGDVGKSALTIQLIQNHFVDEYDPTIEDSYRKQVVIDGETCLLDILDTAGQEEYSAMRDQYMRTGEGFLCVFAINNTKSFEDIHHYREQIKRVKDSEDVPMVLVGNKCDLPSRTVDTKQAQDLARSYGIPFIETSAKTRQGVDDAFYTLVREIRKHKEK
Chain of KRAS G13D (P62937 whole entry): as the sequence (P62937 whole entry) above
From the text: as §1, §2, §3, §4

[8] = target: KRAS G12C (Homo sapiens, UniProt P01116+P62937, G12C); conditions: Ras-Raf disruption, with Cyclophilin A; read-out: KRAS G12C FRET data IC50
Chain of KRAS G12C (P01116 1-169 isoform P01116-2 G12C limits assumed): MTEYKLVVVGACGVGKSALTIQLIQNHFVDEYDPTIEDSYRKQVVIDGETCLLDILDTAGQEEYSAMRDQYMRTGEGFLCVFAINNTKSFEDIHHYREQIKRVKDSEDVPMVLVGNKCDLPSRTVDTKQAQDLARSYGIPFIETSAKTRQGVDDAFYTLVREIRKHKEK
Chain of KRAS G12C (P62937 whole entry): as the sequence (P62937 whole entry) above
From the text: as §1, §2, §3, §4
as §3, with “is” for “was”, “Ras” for “K-Ras”, “cyclophilin” for “Cyclophilin”, “effector.” for “effector. Data is reported as IC50 values.”
In assay buffer containing 25 mM HEPES pH 7.3, 0.002% Tween20, 0.1% BSA, 100 mM NaCl and 5 mM MgCl2, tagless Cyclophilin A, His6-K-Ras-GMPPNP (or other Ras variant), and GST-BRAF^RBD are combined in a 384-well assay plate at final concentrations of 25 μM, 12.5 nM and 50 nM, respectively. Compound is present in plate wells as a 10-point 3-fold dilution series starting at a final concentration of 30 μM. After incubation at 25° C. for 3 hours, a mixture of Anti-His Eu-W1024 and anti-GST allophycocyanin is then added to assay sample wells at final concentrations of 10 nM and 50 nM, respectively, and the reaction incubated for an additional 1.5 hours. […] Compounds that facilitate disruption of a Ras:RAF complex are identified as those eliciting a decrease in the TR-FRET ratio relative to DMSO control wells.

Chain of KRAS G13C (P01116 1-169 isoform P01116-2 G13C limits assumed): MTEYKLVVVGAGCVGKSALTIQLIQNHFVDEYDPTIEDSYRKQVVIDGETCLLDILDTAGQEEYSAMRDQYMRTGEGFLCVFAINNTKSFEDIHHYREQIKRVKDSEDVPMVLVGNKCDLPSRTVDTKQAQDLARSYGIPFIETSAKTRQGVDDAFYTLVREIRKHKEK
Chain of KRAS G13C (P62937 whole entry, the tested form may be a part): as the sequence (P62937 whole entry) above

Row | Compound | IC50 [1] [nM] | IC50 [2] [nM] | IC50 [3] [nM] | IC50 [4] [nM] | IC50 [5] [nM] | IC50 [6] [nM] | IC50 [7] [nM] | IC50 [8] [nM]
1 | CCn1c(-c2cccnc2[C@H](C)OC)c2c3cc(ccc31)-c1cc(O)cc(c1)C[C@H](NC(=O)[C@H](C(C)C)N(C)C(=O)c1ncc(NC(=O)[C@@H]3CN3)n1C)C(=O)N1CCC[C@H](N1)C(=O)OCC(C)(C)C2 [Example 83] | 10 to 100 | 10 to 100 | 10 to 100 | 10 to 100 | 10 to 100 | 100 to 1000 | 10 to 100 | 10 to 100
2 | CCn1c(-c2cccnc2[C@H](C)OC)c2c3cc(ccc31)-c1cccc(c1)C[C@H](NC(=O)[C@H](C(C)C)N(C)C(=O)[C@H]1CC[C@H](N=C=NC(C)(C)C)C1)C(=O)N1CCC[C@H](N1)C(=O)OCC(C)(C)C2 [Example 125] | 100 to 1000 | > 10000 | > 10000 | 10 to 100 | > 10000 | 1000 to 10000 | > 10000 | 10 to 100
3 | CCn1c(-c2cccnc2[C@H](C)OC)c2c3cc(ccc31)-c1cccc(c1)C[C@H](NC(=O)[C@H](C(C)C)N(C)C(=O)[C@H]1CC[C@H](N=C=NC34CC(C3)C4)C1)C(=O)N1CCC[C@H](N1)C(=O)OCC(C)(C)C2 [Example 123] | 100 to 1000 | > 10000 | 1000 to 10000 | 100 to 1000 | 1000 to 10000 | 1000 to 10000 | > 10000 | 100 to 1000
4 | CCn1c(-c2cccnc2[C@H](C)OC)c2c3cc(ccc31)-c1cccc(c1)C[C@H](NC(=O)[C@H](C(C)C)N(C)C(=O)[C@H]1C[C@H](N=C=NCCOC)C1)C(=O)N1CCC[C@H](N1)C(=O)OCC(C)(C)C2 [Example 78] | 10 to 100 | 1000 to 10000 | 1000 to 10000 | 10 to 100 | 1000 to 10000 | 1000 to 10000 | > 10000 | 10 to 100
5 | CCn1c(-c2cccnc2[C@H](C)OC)c2c3cc(ccc31)-c1cc(O)cc(c1)C[C@H](NC(=O)[C@H](C(C)C)N(C)C(=O)[C@H]1CCN(C(=O)[C@@H]3N[C@@H]3C3CC3)C1)C(=O)N1CCC[C@H](N1)C(=O)OCC(C)(C)C2 (atropisomer, axis not shown) [Example 198] | 10 to 100 | 10 to 100 | 100 to 1000 | < 10 | 10 to 100 | 10 to 100 | 10 to 100 | < 10
6 | CCn1c(-c2cccnc2[C@H](C)OC)c2c3cc(ccc31)-c1csc(n1)C[C@H](NC(=O)[C@H](C(C)C)N(C)C(=O)N1CCN(C(=O)[C@H]3CN3)CC1)C(=O)N1CCC[C@H](N1)C(=O)OCC(C)(C)C2 [Example 169] | 10 to 100 | 10 to 100 | 100 to 1000 | 10 to 100 | 10 to 100 | 100 to 1000 | 100 to 1000 | 10 to 100
7 | CCn1c(-c2cccnc2[C@H](C)OC)c2c3cc(ccc31)-c1cc(O)cc(c1)C[C@H](NC(=O)[C@H](C(C)C)N(C)C(=O)CC1CN(C(=O)[C@@H]3CN3)C1)C(=O)N1CCC[C@H](N1)C(=O)OCC(C)(C)C2 [Example 178] | 10 to 100 | 100 to 1000 | 100 to 1000 | 10 to 100 | 100 to 1000 | 100 to 1000 | 100 to 1000 | 10 to 100
8 | CCn1c(-c2cccnc2[C@H](C)OC)c2c3cc(ccc31)-c1cc(O)cc(c1)C[C@H](NC(=O)[C@H](C(C)C)N(C)C(=O)C1CN(S(=O)(=O)[C@@H]3CN3C)C1)C(=O)N1CCC[C@H](N1)C(=O)OCC(C)(C)C2 (single isomer, unassigned) [Example 118] | 10 to 100 | 100 to 1000 | 100 to 1000 | 100 to 1000 | 100 to 1000 | 1000 to 10000 | 100 to 1000 | 100 to 1000
9 | CCn1c(-c2cccnc2[C@H](C)OC)c2c3cc(ccc31)-c1cc(O)cc(c1)C[C@H](NC(=O)[C@H](C(C)C)N(C)C(=O)N1CCN(C(=O)[C@H]3CN3)C(=O)C1)C(=O)N1CCC[C@H](N1)C(=O)OCC(C)(C)C2 [Example 143] | 10 to 100 | 10 to 100 | 100 to 1000 | 10 to 100 | 10 to 100 | 100 to 1000 | 10 to 100 | 10 to 100
10 | CCn1c(-c2cccnc2[C@H](C)OC)c2c3cc(ccc31)-c1cc(O)cc(c1)C[C@H](NC(=O)[C@H](C(C)C)N(C)C(=O)[C@H]1CCN(S(=O)(=O)[C@H]3CN3C)C1)C(=O)N1CCC[C@H](N1)C(=O)OCC(C)(C)C2 (single isomer, unassigned) [Example 57] | 10 to 100 | 100 to 1000 | 100 to 1000 | 100 to 1000 | 100 to 1000 | 1000 to 10000 | 100 to 1000 | 100 to 1000
11 | CCn1c(-c2cccnc2[C@H](C)OC)c2c3cc(ccc31)-c1cc(O)cc(c1)C[C@H](NC(=O)[C@H](C(C)C)N(C)C(=O)C1CCN(C(=O)[C@@H]3CN3)CC1)C(=O)N1CCC[C@H](N1)C(=O)OCC(C)(C)C2 [Example 89] | < 10 | 10 to 100 | 100 to 1000 | 10 to 100 | 10 to 100 | 100 to 1000 | 10 to 100 | 10 to 100
12 | CCn1c(-c2cccnc2[C@H](C)OC)c2c3cc(ccc31)-c1cccc(c1)C[C@H](NC(=O)[C@H](C(C)C)N(C)C(=O)CCN=C=NCCOC)C(=O)N1CCC[C@H](N1)C(=O)OCC(C)(C)C2 [Example 74] | 100 to 1000 | 1000 to 10000 | 1000 to 10000 | 10 to 100 | 1000 to 10000 | 100 to 1000 | 1000 to 10000 | 10 to 100
13 | CCn1c(-c2cccnc2[C@H](C)OC)c2c3cc(ccc31)-c1cc(O)cc(c1)C[C@H](NC(=O)[C@H](C(C)C)N(C)C(=O)[C@@]1(F)CCN(C(=O)[C@H]3CN3)C1)C(=O)N1CCC[C@H](N1)C(=O)OCC(C)(C)C2 [Example 171] | 10 to 100 | 10 to 100 | 10 to 100 | < 10 | 10 to 100 | 10 to 100 | 10 to 100 | < 10
14 | CCn1c(-c2cccnc2[C@H](C)OC)c2c3cc(ccc31)-c1cc(O)cc(c1)C[C@H](NC(=O)[C@H](C(C)C)N1CCC3(CCN(C(=O)[C@@H]4CN4)C3)C1=O)C(=O)N1CCC[C@H](N1)C(=O)OCC(C)(C)C2 (stereo partly shown) [Example 113] | 10 to 100 | 10 to 100 | 10 to 100 | < 10 | 10 to 100 | 10 to 100 | 10 to 100 | < 10
